The results in this text go back to US20080312435A1, “Imine Compound” (TAISHO PHARMACEUTICAL CO., LTD., priority 2004, published 2008).

What is called pIC50 is −log10 of the IC50, conventionally taken in molar units. A word on the melting point: it is the temperature, or range, at which the solid turns liquid.

pIC50: −log10 of the molar value.

One data set has as its target T1, human CB1 receptor (Homo sapiens, UniProt P21554).
T1 construct: expressed in transfected cells
The experiment in a line: Human CB1 receptor binding inhibition test. The settings on record: CHO-DHFR(−) cells stably expressing human CB1 receptor, same manner as Experimental Example 1. How it is done:
Human CB1 Receptor Binding Inhibition Test
The CHO-DHFR(−) cells capable of stably expressing a CB1 receptor were prepared in the same manner as in Experimental Example 1. The binding test to the human CB1 receptor was performed to obtain 50% inhibitory concentration (IC50 value) of a test compound.

Another data set addresses T2, human CB2 receptor (Homo sapiens, UniProt P34972).
T2 construct: expressed in transfected cells
Put plainly: Human CB2 receptor binding inhibition test ([3H]CP-55,940, CHO membrane fractions). The settings on record: [3H]CP-55,940, membrane fractions of CHO cells stably expressing human CB2 receptor, 25° C., 2 hours; read-out: CB2 IC50 (Inhibition of binding to human CB2 receptor). The essentials: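 Membranes from CHO-DHFR(−) cells stably expressing human CB2 used for [3H]CP-55,940 binding; filter-bound radioactivity counted by scintillation after washes with 0.1% BSA buffer. Nonspecific binding defined with 2.0 μM CP-55,940; IC50 for inhibition of specific binding.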

T2 sequence (P34972 whole entry): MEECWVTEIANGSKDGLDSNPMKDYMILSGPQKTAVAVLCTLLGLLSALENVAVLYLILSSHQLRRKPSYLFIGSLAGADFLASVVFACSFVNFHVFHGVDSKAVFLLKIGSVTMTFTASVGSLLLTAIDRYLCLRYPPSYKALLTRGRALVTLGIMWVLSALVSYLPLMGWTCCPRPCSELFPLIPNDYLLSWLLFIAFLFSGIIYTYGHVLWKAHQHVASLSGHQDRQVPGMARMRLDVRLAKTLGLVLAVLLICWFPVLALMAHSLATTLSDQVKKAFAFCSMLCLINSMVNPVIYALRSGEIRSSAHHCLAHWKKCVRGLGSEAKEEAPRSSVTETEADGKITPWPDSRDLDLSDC
T1 sequence (P21554 whole entry): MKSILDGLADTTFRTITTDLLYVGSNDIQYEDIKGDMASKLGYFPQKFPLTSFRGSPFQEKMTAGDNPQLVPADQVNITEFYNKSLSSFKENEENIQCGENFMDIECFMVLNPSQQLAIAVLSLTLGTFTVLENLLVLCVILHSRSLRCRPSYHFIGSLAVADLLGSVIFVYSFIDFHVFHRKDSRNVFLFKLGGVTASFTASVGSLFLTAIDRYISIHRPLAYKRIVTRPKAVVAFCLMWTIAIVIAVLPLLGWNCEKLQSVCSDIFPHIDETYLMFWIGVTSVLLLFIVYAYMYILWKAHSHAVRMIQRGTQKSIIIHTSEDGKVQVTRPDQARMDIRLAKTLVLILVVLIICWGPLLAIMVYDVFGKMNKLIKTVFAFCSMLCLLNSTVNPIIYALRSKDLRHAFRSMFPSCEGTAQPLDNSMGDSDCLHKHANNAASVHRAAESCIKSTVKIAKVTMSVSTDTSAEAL

In the case of `Cc1c(C(C)(C)C)s/c(=N\C(=O)c2ccc(F)cc2Br)n1CC1CC1` [compound 229], the melting point lay in the range of 126 to 128 °C. Besides, at human CB1 receptor, the pIC50 was 6.58. The negative logarithm of the IC50 (pIC50) at human CB2 receptor was 9.00.

As for `COc1ccc(C(=O)/N=c2\sc(C(C)(C)C)c(C)n2CC2CC2)c(OC)c1` [compound 236], the negative logarithm of the IC50 (pIC50) at human CB1 receptor is 6.67; on human CB2 receptor, 8.70.

In the case of `Cc1c(C(C)(C)C)s/c(=N\C(=O)c2ccccc2Br)n1CC1CC1` [compound 189], the results for the pIC50 at human CB1 receptor and at human CB2 receptor were 6.67 and 8.82, respectively.

For `Cc1c(C(=O)/N=c2\cc(C(C)(C)C)n(C)n2CCOC(C)C)cccc1C(F)(F)F` [compound 494], the figures for the pIC50 on human CB1 receptor and at human CB2 receptor were 6.55 and 8.68, respectively.

`Cc1c(C(C)(C)C)s/c(=N\C(=O)c2ccccc2I)n1CC1CC1` [compound 191]: the results for the negative logarithm of the IC50 (pIC50) on human CB1 receptor and at human CB2 receptor were 6.71 and 9.15, respectively.

`Cc1cccc(C(=O)/N=c2\sc(C(C)(C)C)c(C)n2CC2CC2)c1C` [compound 215] returned a melting point of 97 to 98 °C. The molecule further gave a pIC50 at human CB1 receptor of 7.21. Also, the pIC50 on human CB2 receptor is 8.96.

The molecule `CCOCCn1/c(=N/C(=O)c2cccc(C)c2Br)cc(C(C)(C)C)n1C` [compound 487] displayed a melting point of 166 to 167 °C. The molecule also gave a negative-log IC50 (pIC50) on human CB1 receptor of 6.61. Also, the pIC50 on human CB2 receptor is 8.00.

`Cc1c(C(C)(C)C)s/c(=N\C(=O)c2c(Cl)ccc3cc(Cl)cnc23)n1CC1CC1` [compound 327] registered a melting point of 172 to 174 °C. This molecule had a pIC50 at human CB1 receptor of 7.26. Besides, the pIC50 at human CB2 receptor is 8.44.

Regarding `Cc1c(Br)cccc1C(=O)/N=c1\sc(C(C)(C)C)c(C)n1CC1CC1` [compound 245], the melting point lay in the range of 89 to 90 °C. The molecule also had a pIC50 on human CB1 receptor of 7.49. Besides, the pIC50 at human CB2 receptor was 9.10.

Consider `Cc1c(C(C)(C)C)s/c(=N\C(=O)c2nc(Cl)ccc2Cl)n1CC1CC1` [compound 306], for which the melting point was 143 to 145 °C. At human CB1 receptor, the pIC50 was 7.17. The pIC50 at human CB2 receptor was 9.30.

For the molecule `Cc1c(C(C)(C)C)s/c(=N\C(=O)c2nccc3ccccc23)n1CC1CC1` [compound 324], the pIC50 at human CB1 receptor is 6.45; at human CB2 receptor it was 8.70.

As for `CCOCCn1/c(=N/C(=O)c2cccc(Cl)c2Cl)cc(C(C)(C)C)n1C` [compound 486], the melting point lay in the range of 145 to 146 °C. Moreover, the pIC50 at human CB1 receptor was 6.68. Further, the pIC50 at human CB2 receptor was 8.29.

`Cc1c(C(C)(C)C)s/c(=N\C(=O)c2c(C(F)(F)F)ccc(Cl)c2F)n1CC1CC1` [compound 289] showed a melting point of 182 to 183 °C. For the same molecule, the negative logarithm of the IC50 (pIC50) on human CB1 receptor was 6.87. Also, the negative logarithm of the IC50 (pIC50) at human CB2 receptor was 9.30.

On to `Cc1c(C(C)(C)C)s/c(=N\C(=O)c2ccnc3ccccc23)n1CC1CC1` [compound 323], for which the melting point is 124 to 126 °C. Moreover, the pIC50 on human CB1 receptor was 6.44. Also, on human CB2 receptor, the pIC50 is 8.21.

The molecule `Cc1c(C(C)(C)C)s/c(=N\C(=O)c2cc(F)ccc2Br)n1CC1CC1` [compound 228] displayed a melting point of 92 to 94 °C. This molecule also had a pIC50 on human CB1 receptor of 6.64. Further, at human CB2 receptor, the pIC50 was 9.30.

In turn, `Cc1c(C(C)(C)C)s/c(=N\C(=O)c2cccc(C(F)(F)F)c2Cl)n1CC1CC1` [compound 258] registered a melting point of 93 to 94 °C. Besides, the pIC50 at human CB1 receptor was 7.72. The pIC50 at human CB2 receptor is 9.22.

`Cc1c(F)cccc1C(=O)/N=c1\sc(C(C)(C)C)c(C)n1CC1CC1` [compound 240] displayed a melting point of 94 to 96 °C. On human CB1 receptor, this molecule had a pIC50 of 6.77. For the same molecule, the pIC50 on human CB2 receptor is 8.47.

`CC(C)(C)c1c/c(=N\C(=O)c2cccc(C(F)(F)F)c2F)n(CC2CC2)s1` [compound 56] registered a melting point of 85 to 87 °C. Also, the pIC50 on human CB1 receptor was 6.53. At human CB2 receptor, the pIC50 was 9.10.

Take `Cc1ccccc1C(=O)/N=c1\sc(C(C)(C)C)c(C)n1CC1CC1` [compound 180]: the pIC50 on human CB1 receptor was 6.40; at human CB2 receptor it was 9.00.

Take `Cc1ncccc1C(=O)/N=c1/sc(C(C)(C)C)c(C)n1CC1CC1` [compound 295]: the pIC50 on human CB1 receptor was 6.30; at human CB2 receptor, 7.91.

As to `CC(C)OCCn1/c(=N/C(=O)c2cccc(Cl)c2Cl)cc(C(C)(C)C)n1C` [compound 492], the pIC50 at human CB1 receptor is 6.58; at human CB2 receptor it was 8.30.

For `Cc1c(C(C)(C)C)s/c(=N\C(=O)c2ccccc2N2CCOCC2)n1CC1CC1` [compound 206], the negative-log IC50 (pIC50) is 6.34 at human CB1 receptor and 8.24 at human CB2 receptor.

The molecule `COc1ccc(Cl)cc1C(=O)/N=c1\sc(C)c(C)n1CC1CC1` [compound 97] returned a melting point of 121 to 123 °C. For the same molecule, at human CB2 receptor, the pIC50 is 8.48.

`CCn1c(C)c(C(C)(C)C)s/c1=N\C(=O)c1cc(F)ccc1C` [compound 161] gave a melting point of 108 to 109 °C. Besides, the pIC50 at human CB2 receptor was 8.01.

As to `Cc1c(C(C)(C)C)s/c(=N\C(=O)c2ccccc2Cl)n1CC1CC1` [compound 186], the negative logarithm of the IC50 (pIC50) at human CB1 receptor was 6.57; on human CB2 receptor, 8.77.

For the molecule `Cc1cccc(C)c1C(=O)/N=c1\sc(C(C)(C)C)c(C)n1CC1CC1` [compound 218], the melting point fell in the range of 98 to 100 °C. The pIC50 at human CB2 receptor was 8.24.

In turn, `COCCn1c(C)c(C(C)(C)C)s/c1=N\C(=O)C(F)(F)C(F)(F)C(F)(F)F` [compound 338] came in with a melting point of 69 to 71 °C. At human CB2 receptor, the negative logarithm of the IC50 (pIC50) was 8.04.

Take `Cc1c(C(C)(C)C)s/c(=N\C(=O)c2ccccc2C(F)(F)F)n1C` [compound 117]: the melting point lay in the range of 74 to 76 °C. The negative logarithm of the IC50 (pIC50) on human CB2 receptor is 8.25.

`Cc1s/c(=N\C(=O)c2ccccc2I)n(CC2CC2)c1C` [compound 78] returned a melting point of 130 to 132 °C. The pIC50 at human CB2 receptor is 8.01.

In turn, `Cn1c(C(C)(C)C)c/c(=N\C(=O)c2cccc(Cl)c2Cl)n1CC1CCC1` [compound 481] showed a melting point of 152.5 to 154 °C. Moreover, the pIC50 at human CB2 receptor was 8.47.

As for `Cc1c(C(C)(C)C)s/c(=N\C(=O)c2ccc(C#N)cc2)n1CC1CC1` [compound 210], the melting point is 125 to 126 °C. For the same molecule, at human CB2 receptor, the negative-log IC50 (pIC50) is 7.80.

In the case of `Cc1c(Br)cc/c(=N\C(=O)c2cccc(C(F)(F)F)c2F)n1CC1CC1` [compound 41], the melting point was 135 to 137 °C. Besides, the pIC50 on human CB2 receptor is 8.85.

Turning to `Cc1c(C(C)(C)C)s/c(=N\C(=O)c2cc(Br)ccc2OC(F)F)n1CC1CC1` [compound 266], the melting point is 169 to 170 °C. At human CB2 receptor, the pIC50 was 9.10.

The molecule `CCn1c(C)c(C(C)(C)C)s/c1=N\C(=O)c1cc(Cl)ccc1OC` [compound 167] displayed a melting point of 108 to 109 °C. Moreover, at human CB2 receptor, the negative-log IC50 (pIC50) was 8.34.

The molecule `Cc1c(C(C)(C)C)s/c(=N\C(=O)c2ccc(Br)cc2F)n1CC1CC1` [compound 227] returned a melting point of 121 to 131 °C. At human CB2 receptor, the pIC50 is 8.09.

Molecule `Cc1c(C(C)(C)C)s/c(=N\C(=O)c2cc(Cl)ncc2Cl)n1CC1CC1` [compound 307] displayed a melting point of 110 to 112 °C. Further, the pIC50 on human CB2 receptor was 9.00.

With `Cc1c(C(C)(C)C)s/c(=N\C(=O)C(F)(F)C(F)(F)C(F)(F)F)n1C` [compound 149], the melting point lay within 180 to 182 °C. Also, the pIC50 on human CB2 receptor is 7.91.
